The values that follow are results of earlier work, collected in article PMC2923042 (Journal of chemical information and modeling, 2008).

Structures are written as SMILES. Bounds are passed on as bounds.

In this series the test system is catL. The note with it: extrapolated from 63% inhibition at 10^-7 M; ref Tsuge et al.[15].

Broadly, the IC50 is the concentration at which inhibition is half-maximal. Turning to `CN(C)C(=O)[C@H](Cc1ccccc1)NC(=O)[C@H]1O[C@@H]1C(=O)NCCc1ccccn1` [CLIK-148], the IC50 is less than 100 nM.
